Experimental findings from PubChem BioAssay (NCI) are described below.

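Assay format: 96-well plates, 48-hour exposure. Definition used: TGI = concentration required for complete inhibition of growth.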

Common to all, as to test: NCI tumour cell line growth inhibition, 48 h
The subject of test [1] is SF-268 CNS.
Test [2] deals with HS 578T breast.
The test system of test [3] is SK-MEL-5 melanoma.
Test [4] relates to MCF7 breast.
Test [5] relates to HCT-116 colon.
The test system of test [6] is SF-295 CNS.
Test [7] has as its system SK-OV-3 ovarian.
Test [8] has as its system BT-549 breast.
For test [9], the system named is SK-MEL-2 melanoma.
Test [10] has as its system CAKI-1 renal.
For test [11], the system named is ACHN renal.
Test [12] concerns A549 NSCLC.
The subject of test [13] is HT29 colon.
The test system of test [14] is KM12 colon.
The subject of test [15] is U251 CNS.
The subject of test [16] is NCI/ADR-RES ovarian.
For test [17], the system named is SW-620 colon.
In test [18] the test system is COLO 205 colon.
The test system of test [19] is RPMI-8226 leukemia.
In test [20] the test system is DU-145 prostate.

`COC(=O)c1ccccc1CC1Cc2cc3c(cc2C1=O)CCC3` (centres undefined): the TGI in test [1] was more than 100 µM; in test [2] it was 86.6 µM; in test [3], 20.9 µM; in [4], 65.3 µM; in test [5], 29.9 µM; in test [6], 77.4 µM. Moreover, the TGI was more than 71.8 µM in test [7]; 31.8 µM in test [8]; 19.7 µM in test [9]; more than 100 µM in [10]; more than 100 µM in test [11]; 72.8 µM in test [12]. The TGI is 41.4 µM in test [13]; more than 100 µM in test [14]; 42.3 µM in test [15]; 21.8 µM in test [16]; more than 100 µM in [17]; 28.4 µM in test [18]. Also, the figures for the TGI in [19] and in test [20] were 54.5 µM and more than 100 µM, respectively.

Turning to `O=C(NCCCNCCN1C(=O)c2cccc3cc([N+](=O)[O-])cc(c23)C1=O)c1cc(-c2ccccc2)nc2ccccc12`, the TGI stood at 15.9 µM in test [1]; 12.5 µM in test [2]; 5.97 µM in [3]; 6.51 µM in test [4]; 16.8 µM in test [5]; 14.8 µM in test [6]. The TGI in test [7] worked out at 21.6 µM; in [8] it was 20.2 µM; in [9], 12.1 µM; in [10], 18.9 µM; in [11], 14.5 µM; in test [12], 15.7 µM. Also, the TGI in test [13] came to 2.84 µM; in test [14] it was 18.6 µM; in test [15] it was 9.12 µM; in test [16], 17.3 µM; in [17], 5.37 µM; in test [18] it was 4.26 µM. Moreover, the TGI came out at 7.66 µM in test [19] and 17.3 µM in [20].

`CN(C)C=Nc1c2ccccc2nc2ccccc12`: the TGI in test [1] was determined as 13.1 µM; in [2], 6.82 µM; in test [3], 12.5 µM; in test [4] it was 12.1 µM; in [5] it was 17.8 µM; in test [6], 21.6 µM. The TGI is 23.4 µM in test [7]; 13.2 µM in test [8]; 9.26 µM in test [9]; more than 100 µM in [10]; 34 µM in [11]; 17.3 µM in [12]. The TGI was 14.5 µM in [13]; 15 µM in [15]; 34.6 µM in test [16]; 8.87 µM in test [18]; 6.88 µM in [19]; 39.7 µM in [20].

As to `COc1cc2c(c(O)c1OC)C(=O)[C@@H]1CCC(=O)N1C2c1ccccc1` (some centres undefined), the TGI in test [1], in test [2], in [4], in test [5], in test [6] and in test [7] was more than 100 µM throughout. Further, the TGI in test [8], in test [9], in [10], in [11], in test [12] and in [13] was more than 100 µM in each case. Further, the TGI in [14], in [15], in test [16], in test [17], in [18] and in test [19] was more than 100 µM each time. Also, the TGI in test [20] is more than 100 µM.

For `COc1ccc2nc3c([N+](=O)[O-])ccc4c3c(c2c1)NCCN4CCN(C)C`, the TGI in test [1] was 2.41 µM; in [2], 3.91 µM; in test [3], 2.08 µM; in test [4] it was more than 10 µM; in test [5], 1.3 µM; in test [6] it was 1.69 µM. Besides, the TGI in [7] turned out to be 0.973 µM; in [8], 3.39 µM; in test [9], 2.92 µM; in test [10], 7.35 µM; in test [11], 1.66 µM; in [12], 2.19 µM. Also, the TGI in test [13] stood at 2.34 µM; in [14], 1.46 µM; in test [15], 2.54 µM; in test [16] it was 3.25 µM; in test [17] it was 1.98 µM; in [19], 4.62 µM. Moreover, in test [20], the TGI came out at 4.91 µM.

For `CC(=O)c1cc2c(s1)C(=O)c1sccc1C2=O`, the TGI came to 0.0889 µM in test [1]; 0.198 µM in test [2]; 0.0216 µM in [3]; 36.8 µM in [4]; 0.489 µM in test [5]; 0.0852 µM in test [6]. For the same compound, the TGI in test [7] worked out at 3.2 µM; in test [8], 0.0321 µM; in [9], 0.193 µM; in test [10], 0.413 µM; in test [12] it was 0.433 µM; in [13] it was 0.426 µM. Also, the TGI in [14] amounted to 0.332 µM; in test [15], 0.0556 µM; in test [16], 0.309 µM; in test [17], 0.28 µM; in test [18], 2.63 µM; in test [19] it was 0.191 µM. The TGI in [20] was determined as 0.0995 µM.

For `O=S1(=O)c2ccccc2C(Nc2ccccc2)N1c1ccccc1` (centres undefined), the TGI in test [1], in [2], in test [3], in test [4], in test [5] and in test [6] was more than 100 µM throughout. Besides, the TGI in test [7], in test [8], in [9], in [10], in test [11] and in [12] was more than 100 µM in each case. Moreover, the TGI in [13], in [14], in test [15], in test [16], in test [17] and in [19] was more than 100 µM in each case. In addition, the TGI in test [20] is more than 100 µM.
